Test results: the SangsterLogP compilation

Assays:
[1] = method code SF-AS, from DOI: 10.1002/1521-3838(200111)20:4<291::aid-qsar291>3.0.co;2-q
[2] = method code SF-AS, from Holmes, L.; Lough, E. (1976). Effect of Intramolecular Hydrogen Bonding on Partition Coefficients [Technical Note]. Defence Research Establishment Suffield.
[3] = method code SF-HPLC, from DOI: 10.1016/0378-5173(82)90005-9; settings: pH 3.0
[4] = not given; remark: listed apart in the source
[5] = method code SF, from DOI: 10.1111/j.2042-7158.1971.tb08772.x, PMID: 4401532; settings: pH 7.2
[6] = method code SF-RC, from Audran, M.; Chanal, J.; Berge, G.; Marignan, R. (1983). Binding-structure correlation of bovine serum albumin in a series of cresotinamides. International Journal of Pharmaceutics, 15(3)273-284.; settings: pH 1.0
[7] = method code SF, from DOI: 10.1021/jm030913e.s001, PMID: 14736235; settings: pH 7.4
[8] = method code SF, from DOI: 10.1021/jm00307a001, PMID: 5637185
[9] = method code SF, from DOI: 10.1021/jm00378a018, PMID: 6389865; settings: pH 7.0
[10] = from Dutta, H.; Mehta, N.; SenGupta, M.; Pal, D.; Sengupta, C.; De, A. (1988). Dioxanide furoate: studies on its interaction with blood phospholipid in relation to partition coefficients of related drugs. …
[11] = method code SF-AS, from DOI: 10.1007/bf02877675, PMID: 411721
[12] = not given; remark: listed apart in the source
[13] = not given; remark: listed apart in the source
[14] = not given; remark: listed apart in the source
[15] = method code SF, from DOI: 10.1016/0360-3016(86)90226-9, PMID: 3744928; settings: pH 7.4
[16] = method code SF-AS, from DOI: 10.1016/0006-2952(93)90433-w, PMID: 8494536; settings: pH 7.4
[17] = method code SF-GLC, from Hermens, J., & De Bruijn, J. (1987). A QSAR study for fish toxicity data of organophosphorus compounds. QSAR in Drug Design and Toxicology, 10, 343-345.
[18] = method code SF-HPLC, from DOI: 10.1016/0378-5173(87)90234-1; settings: pH 4.0
[19] = method code SF-AS, from DOI: 10.1021/j150653a049
[20] = method code SF-AS, from DOI: 10.1002/jps.2600800717, PMID: 1658297
[21] = method code SF, from DOI: 10.1515/bc.2002.085, PMID: 12108546
[22] = not given; remark: listed apart in the source
[23] = method code SF-AS, from DOI: 10.1248/cpb.35.377
[24] = method code SF-HPLC, from DOI: 10.1016/0378-5173(85)90010-9; settings: pH 4.0
[25] = method code SF-AS, from DOI: 10.1111/j.2042-7158.1979.tb13606.x, PMID: 41067; settings: pH 1.2
[26] = method code SF-HPLC, from DOI: 10.1016/s0223-5234(02)01360-0, PMID: 12008054; settings: pH 7.4
[27] = method code SF-AS, from DOI: 10.1021/jm00254a011, PMID: 4845376
[28] = method code SF, from DOI: 10.1016/0048-3575(88)90017-x

In the case of `c1ccc(N(c2ccccc2)c2ccccc2)cc1`, the logP is reported as 5.22.

Work on `COc1ccc(-c2n[nH]c(=S)o2)cc1` yielded a logP [1] of 3.

With `CC(=O)c1ccc(O)cc1` the logP [2] was 1.45.

With `O=C1NC(=O)C2(CCC2)C(=O)N1` the logD [3] was -0.27.

For `Cc1ccc2ccccc2n1`, the logP [4] was 2.59.

In the case of `CC(=O)Nc1ccc(Cl)cc1`, the logD [5] is reported as 1.87.

In the case of `CCNC(=O)c1cc(Br)cc(C)c1O`, the logD [6] is reported as 3.61.

Molecule `CC[C@@H](C(N)=O)N1CCCC1=O` has a logD [7] of -0.65.

With `Cc1cc(Br)cc(C(N)=O)c1O` the logD [6] was 2.76.

Molecule `Nc1ccc(-c2n[nH]c(=S)o2)cc1` has a logP [1] of 2.03.

With `C#CC(C=C)(CC)OC(N)=O` (configuration not stated) the logP [8] was 1.09.

With `Nc1nc(NCC(O)CO)c(Cl)nc1[N+](=O)[O-]` (configuration not stated) the logD [9] was -0.22.

With `CC[C@@H](C(N)=O)N1C[C@H](CI)CC1=O` the logD [7] was 0.51.

In the case of `CC(=O)Nc1nc(NCC(O)CO)c(Cl)nc1[N+](=O)[O-]` (configuration not stated), the logD [9] is reported as 0.

For `O=C(Nc1ccc(O)cc1)C(Cl)Cl`, the logP [10] was 1.6.

`N#CC(C#N)=NNc1ccccc1` gave a logP [11] of 2.49.

`Cc1cc(Br)cc(C(=O)NC(C)C)c1O` gave a logD [6] of 4.19.

In the case of `CC(C)(C)c1cc(C(C)(C)C)c(O)c(C(C)(C)C)c1`, the logP [12] is reported as 6.3.

`CNc1nc(NC(C)C)nc(SC)n1` gave a logP [13] of 2.79.

`CCCCCCN1CC(C(=O)OC)CC1=O` (configuration not stated) showed a logP [14] of 2.3.

`Cc1ccc(C)c(O)c1` gave a logP [12] of 2.48.

Work on `CCNc1nc(NCC)nc(OC)n1` yielded a logP [13] of 2.41.

`CCCCCCCCCCCCN1CC(C(=O)O)CC1=O` (configuration not stated) showed a logP [14] of 2.6.

With `CCNc1nc(NC(C)CC)nc(OC)n1` (configuration not stated) the logP [13] was 2.96.

In the case of `O=[N+]([O-])c1ncn(CC(O)CN2CC2)n1` (configuration not stated), the logD [15] is reported as -0.72.

For `NS(=O)(=O)c1cccc2ccccc12`, the logD [16] was 1.55.

For `CN(C(=O)C(Cl)Cl)c1ccc(OC(=O)c2ccccc2)cc1`, the logP [10] was 2.56.

With `CCCCNC(=O)Cn1cnc([N+](=O)[O-])n1` the logD [15] was 0.89.

In the case of `COP(=S)(OC)Oc1ccc(SC)cc1`, the logP [17] is reported as 3.64.

`COP(=S)(OC)Oc1cc(Cl)c(I)cc1Cl` showed a logP [17] of 4.61.

In the case of `CNc1ccccc1C`, the logP [4] is reported as 2.16.

In the case of `CCC[C@@H]1CC(=O)N([C@@H](CC)C(N)=O)C1`, the logD [7] is reported as 1.

With `COC(=O)C1CC(=O)N(C)C1` (configuration not stated) the logP [14] was -0.74.

In the case of `CC(C)OC(=O)n1cc(F)c(=O)[nH]c1=O`, the logD [18] is reported as 0.2.

`CC(=O)c1ccc([N+](=O)[O-])cc1` showed a logP of 1.61.

Work on `O=C1NC(=O)C2(CCCCCCC2)C(=O)N1` yielded a logD [3] of 1.79.

Molecule `OCc1cc(Cl)ccc1O` has a logP [19] of 1.44.

For `COc1ccc(N(C)C(C)=O)cc1`, the logD [5] was 0.72.

Work on `OCc1ccccc1O` yielded a logP [19] of 0.56.

In the case of `CCCCCCOC(=O)n1cc(F)c(=O)[nH]c1=O`, the logD [18] is reported as 2.04.

In the case of `CC1(C)CC(N(N=O)C(=O)NC2C(O)OC(CO)C(O)C2O)C(C)(C)N1O` (configuration not stated), the logP [20] is reported as 1.81.

In the case of `CC(=O)N(C)c1ccc(O)cc1`, the logD [5] is reported as 0.61.

`CCCCCCCCOC(=O)C1(C)CCC=[N+]1[O-]` (configuration not stated) gave a logP [21] of 1.62.

Work on `CC1(C)CC(N(N=O)C(=O)NC2C(O)OC(CO)C(O)C2O)CC(C)(C)N1O` (configuration not stated) yielded a logP [20] of 1.87.

Molecule `O=C(O)Cc1cc(Cl)c(Cl)cc1Cl` has a logP [22] of 3.6.

Molecule `CN(C(=O)C(Cl)Cl)c1ccc(OC(=O)c2ccco2)cc1` has a logP [10] of 2.24.

With `O=C(O)Cc1ccc(Oc2cccc(Br)c2)cc1` the logP [22] was 4.1.

`CC(C)(C)c1ccc(O)c(C(C)(C)C)c1` showed a logP [12] of 4.74.

Molecule `CN(N=O)C(=O)NC[C@H](O)[C@@H](O)[C@H](O)[C@H](O)CO` has a logP [20] of -0.96.

`O=C(c1ccccn1)n1c(=O)[nH]cc(F)c1=O` gave a logD [18] of -0.06.

Molecule `OCc1ccccc1Cl` has a logP [23] of 1.77.

With `CS(=O)(=O)c1ccccc1` the logD [16] was 0.55.

Molecule `CN(C)C(=O)n1cc(F)c(=O)[nH]c1=O` has a logD [24] of -0.37.

Molecule `COc1ccc(C(=O)O)cc1` has a logD [25] of 1.88.

Molecule `CC(C)C[C@H]1C(=O)N2CCC[C@H]2[C@]2(O)O[C@](NC(=O)[C@@H]3C=C4c5cccc6[nH]c(Br)c(c56)C[C@H]4N(C)C3)(C(C)C)C(=O)N12` has a logD [26] of 4.61.

Work on `N#CC(C#N)=NNc1cccc(Cl)c1` yielded a logP [11] of 3.13.

With `NC(N)=N/N=C/c1c(Cl)cccc1Cl` the logD [26] was 1.4.

In the case of `C#CC(/C=C/Cl)(CC)OC(N)=O` (configuration not stated), the logP [8] is reported as 1.71.

In the case of `S=c1[nH]nc(-c2ccc(Br)cc2)o1`, the logP [1] is reported as 3.93.

`O=C(Cn1cnc([N+](=O)[O-])n1)N1CCOCC1` showed a logD [15] of -0.96.

Molecule `Cc1ccccc1N(C)C` has a logP [4] of 2.81.

`O=[N+]([O-])c1ccc(N2CCNC2=S)o1` showed a logP [27] of 0.98.

For `O=C(Nc1ccccc1)n1cc(F)c(=O)[nH]c1=O`, the logD [24] was 1.5.

Work on `COc1ccc(CCC(=O)O)cc1` yielded a logD [25] of 1.9.

Molecule `CCC1(CC)SCC(=O)NC1=O` has a logP [8] of 1.5.

With `NC(=O)c1cccc2ccccc12` the logD [16] was 1.88.

`OCc1cc(Cl)cc(Cl)c1O` showed a logP [19] of 2.3.

For `COP(=S)(OC)Oc1ccccc1`, the logP [17] was 2.97.

With `O=C1NC(=O)C2(CCCCCC2)C(=O)N1` the logD [3] was 1.36.

`CC(=O)Nc1nc(N2CCN(C)CC2)c(Cl)nc1[N+](=O)[O-]` showed a logD [9] of 0.5.

`Nc1nc(C=Cc2ccc([N+](=O)[O-])o2)no1` showed a logP [27] of 1.3.

For `CCCCOc1ccc(C(=O)O)cc1`, the logD [25] was 3.57.

Work on `CCCCOC(=O)C1(C)CCC=[N+]1[O-]` (configuration not stated) yielded a logP [21] of 0.12.

Molecule `CNC(=NC#N)NCCSCc1nc[nH]c1C` has a logD [26] of 0.35.

Molecule `Nc1ccccc1C(=O)O` has a logP [23] of 1.13.

Molecule `CC(C)NC(=O)C=Cc1ncc([N+](=O)[O-])s1` has a logP [27] of 1.76.

Work on `CC(=O)OCN1C(=O)C=C(C)C1=O` yielded a logP [28] of 0.45.

Molecule `O=[N+]([O-])c1ccc(Oc2ccccc2)cc1` has a logP of 3.79.

Work on `CC(=O)OCN1C(=O)c2cccc3cccc(c23)C1=O` yielded a logP [28] of 2.34.

Molecule `CCOC(=O)C1(C)CCC=[N+]1[O-]` (configuration not stated) has a logP [21] of -0.82.

For `Cc1ccc(NN=C(C#N)C#N)cc1`, the logP [11] was 3.02.

Work on `CC(=O)OCN1C(=O)C2CC=CCC2C1=O` (configuration not stated) yielded a logP [28] of 0.97.

With `OCc1c(Cl)cccc1Cl` the logP [23] was 2.02.

`O=C(O)Cc1ccc(F)cc1` showed a logP [22] of 1.6.

`CCCCNC(=O)n1cc(F)c(=O)[nH]c1=O` showed a logD [24] of 1.44.

`COc1cccc(C=O)c1O` gave a logP [2] of 1.33.

With `O=C(c1ccccc1)c1ccccc1O` the logP [2] was 3.52.
